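All cell lines were grown in 96-well plates and treated with compound for 48 hours. TGI marks complete inhibition of growth.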

Test systems include SNB-19 CNS; HOP-62 NSCLC; SF-295 CNS; HL-60(TB) leukemia; SK-MEL-5 melanoma; NCI-H226 lung; K-562 leukemia; OVCAR-3 ovarian; PC-3 prostate; MALME-3M melanoma; CCRF-CEM leukemia; RXF 393 renal.
What all share (experiment): NCI-60 cell line screen, 48 h

As for `COc1cc(/C=C/C(=O)OC[C@]23O[C@H]2[C@@H](OC2OC(C)C(O)C(O)C2O)C2C=CO[C@@H](OC4OC(CO)C(O)C(O)C4O)C23)ccc1O` (stereo not given in full), the TGI in the assay on SNB-19 CNS, with HOP-62 NSCLC, in the assay on SF-295 CNS, with HL-60(TB) leukemia, in the assay with SK-MEL-5 melanoma and in the assay on NCI-H226 lung was greater than 100 µM throughout. For the same compound, the TGI with K-562 leukemia, in the assay on OVCAR-3 ovarian, in the assay on PC-3 prostate and in the assay with MALME-3M melanoma was greater than 100 µM each time.

For the compound `COc1ccc(/C=N/N=C(N)N)c(C(=O)O)c1OC`, the TGI in the assay with SNB-19 CNS, with CCRF-CEM leukemia, in the assay on SF-295 CNS, with HL-60(TB) leukemia, with SK-MEL-5 melanoma and in the assay on K-562 leukemia was greater than 100 µM throughout. For the same compound, the TGI in the assay on RXF 393 renal and with OVCAR-3 ovarian was greater than 100 µM each time.

On to `O=C1CCCc2ccc3c(c21)CC1(Cc2cc4c(cc2C1)CCCC4)C3`, for which the TGI in the assay on SNB-19 CNS was found to be 91.7 µM; with CCRF-CEM leukemia, 16 µM; in the assay on HOP-62 NSCLC it was 57.1 µM; in the assay with SF-295 CNS, 75.7 µM; with HL-60(TB) leukemia, 26.3 µM; with SK-MEL-5 melanoma it was 26.2 µM. Moreover, the TGI in the assay on NCI-H226 lung stood at 93.3 µM; in the assay with K-562 leukemia, 25.1 µM; in the assay with RXF 393 renal, 32 µM; with OVCAR-3 ovarian it was 40.3 µM; in the assay on MALME-3M melanoma it was 35.8 µM.

Take `CC(C)OCC(O)COc1cc(=O)oc2ccccc12` (stereo not given): the TGI in the assay on SNB-19 CNS, in the assay on CCRF-CEM leukemia, in the assay with HOP-62 NSCLC, in the assay with SF-295 CNS, in the assay with HL-60(TB) leukemia and with SK-MEL-5 melanoma was greater than 100 µM throughout. Also, the TGI with K-562 leukemia, in the assay on OVCAR-3 ovarian, with PC-3 prostate and in the assay on MALME-3M melanoma was greater than 100 µM each time.

On to `COc1ccc(/C=C/C=C2C(=O)NC(=S)NC2=O)cc1`, for which the TGI is 20 µM in the assay on SNB-19 CNS; 5.69 µM in the assay with CCRF-CEM leukemia; greater than 49.8 µM in the assay with HOP-62 NSCLC; 29.9 µM with SF-295 CNS; 26.1 µM with SK-MEL-5 melanoma; 44.6 µM in the assay with NCI-H226 lung. The TGI in the assay on K-562 leukemia is greater than 31.9 µM; with RXF 393 renal it was 16.8 µM; in the assay with OVCAR-3 ovarian it was 29 µM; in the assay on PC-3 prostate, 43.8 µM; in the assay on MALME-3M melanoma, 14.1 µM.

With `CC1(C)OC2C(CO)OC(/N=C(\NC#N)Oc3ccccc3)C2O1` (stereo not given), the TGI in the assay with SNB-19 CNS, with CCRF-CEM leukemia, in the assay with HOP-62 NSCLC, in the assay with SF-295 CNS, in the assay on HL-60(TB) leukemia and in the assay on SK-MEL-5 melanoma was greater than 100 µM each time. Besides, the TGI in the assay with NCI-H226 lung, in the assay on K-562 leukemia, in the assay with RXF 393 renal and in the assay on OVCAR-3 ovarian was greater than 100 µM in each case.

Consider `O=C1CCCn2c3ccccc3c3ccnc1c32`, for which the TGI in the assay with SNB-19 CNS is greater than 100 µM; in the assay on CCRF-CEM leukemia, greater than 100 µM; with HOP-62 NSCLC, greater than 100 µM; with SF-295 CNS, greater than 100 µM; with HL-60(TB) leukemia, 23 µM; in the assay on SK-MEL-5 melanoma, greater than 100 µM. Also, the TGI was 56.4 µM in the assay with NCI-H226 lung; greater than 100 µM in the assay with K-562 leukemia; 68.8 µM with RXF 393 renal; greater than 100 µM in the assay with OVCAR-3 ovarian; greater than 100 µM in the assay with MALME-3M melanoma.

Turning to `C=CCn1c(-c2ccc(N=NNc3ccc(-c4n[nH]c(=S)n4CC=C)cc3)cc2)n[nH]c1=S`, the TGI in the assay with SNB-19 CNS was greater than 100 µM; in the assay with CCRF-CEM leukemia, greater than 100 µM; in the assay on HOP-62 NSCLC it was 14.8 µM; in the assay with SF-295 CNS, 15.7 µM; in the assay on SK-MEL-5 melanoma, 3.79 µM; with NCI-H226 lung it was 6.13 µM. Also, the TGI in the assay on K-562 leukemia was 7.71 µM; in the assay with RXF 393 renal, 37.8 µM; with PC-3 prostate it was greater than 100 µM; in the assay with MALME-3M melanoma it was greater than 100 µM.

Turning to `O=c1[nH]c(=O)n(COCCO)cc1-c1ccccc1`, the TGI with SNB-19 CNS, with CCRF-CEM leukemia, in the assay on HOP-62 NSCLC, with SF-295 CNS, in the assay with HL-60(TB) leukemia and in the assay on SK-MEL-5 melanoma was greater than 100 µM throughout. In addition, the TGI in the assay with K-562 leukemia, in the assay with OVCAR-3 ovarian, with PC-3 prostate and in the assay on MALME-3M melanoma was greater than 100 µM each time.

As for `CSc1nc(NC2CC2)c2c(n1)Sc1nc3ccccc3n1N=C2`, the TGI with SNB-19 CNS is 72.5 µM; with CCRF-CEM leukemia it was greater than 100 µM; in the assay with HOP-62 NSCLC, 39.6 µM; in the assay on SK-MEL-5 melanoma it was 49.5 µM; in the assay on NCI-H226 lung, 54.6 µM; in the assay on K-562 leukemia, greater than 100 µM. Also, the TGI is 40.3 µM in the assay with OVCAR-3 ovarian, greater than 100 µM with PC-3 prostate and 50.9 µM in the assay with MALME-3M melanoma.

For `COc1cc(C(C)(C)C)c(OC(=O)/C=C/C(=O)O/C=C/[N+](=O)[O-])c(C(C)(C)C)c1`, the TGI with CCRF-CEM leukemia was 37.3 µM; with HOP-62 NSCLC it was greater than 100 µM; with SF-295 CNS it was greater than 100 µM; in the assay with HL-60(TB) leukemia, 4.29 µM; in the assay with SK-MEL-5 melanoma, greater than 100 µM; in the assay with NCI-H226 lung, greater than 100 µM. For the same compound, the TGI was greater than 100 µM in the assay with K-562 leukemia, 81.7 µM in the assay with RXF 393 renal and greater than 100 µM in the assay with OVCAR-3 ovarian.

As to `O=C1NC(N2CCOCC2)=N/C1=C\c1ccccc1`, the TGI in the assay with SNB-19 CNS, in the assay on CCRF-CEM leukemia, in the assay on HOP-62 NSCLC, with SF-295 CNS, in the assay on HL-60(TB) leukemia and with SK-MEL-5 melanoma was greater than 100 µM in each case. Besides, the TGI with NCI-H226 lung, with OVCAR-3 ovarian, in the assay with PC-3 prostate and with MALME-3M melanoma was greater than 100 µM throughout.

Turning to `CCOC(=O)C(C(N)=O)c1nc2cc([N+](=O)[O-])ccc2nc1/C=C(\O)c1ccc(C)cc1` (stereo not given), the TGI in the assay with SNB-19 CNS is 48.3 µM; in the assay on CCRF-CEM leukemia it was greater than 100 µM; with HOP-62 NSCLC it was 33.9 µM; in the assay with SF-295 CNS it was 43.6 µM; with SK-MEL-5 melanoma, greater than 100 µM; in the assay on NCI-H226 lung, greater than 100 µM. Moreover, the TGI in the assay on K-562 leukemia was 12.1 µM; with RXF 393 renal it was 37.1 µM; in the assay on OVCAR-3 ovarian, 31.1 µM; with PC-3 prostate it was 40.4 µM; in the assay with MALME-3M melanoma it was greater than 100 µM.

The values are drawn from PubChem BioAssay (NCI).
